{"source": "ChEMBL document CHEMBL4680246", "about": "“Design, synthesis and biological evaluation of novel O-carbamoyl ferulamide derivatives as multi-target-directed ligands for the treatment of Alzheimer's disease” (Eur J Med Chem, 2020)", "key": {"[1]": {"species": "Danio rerio", "assay": "Protection against amyloid beta (1 to 42)-induced zebrafish model of vascular injury assessed as reduction in injury rate", "assay_type": "functional, organism-based"}, "[2]": {"molecular_target": "Cholinesterase (Homo sapiens, UniProt P06276)", "sequence (P06276 whole entry)": "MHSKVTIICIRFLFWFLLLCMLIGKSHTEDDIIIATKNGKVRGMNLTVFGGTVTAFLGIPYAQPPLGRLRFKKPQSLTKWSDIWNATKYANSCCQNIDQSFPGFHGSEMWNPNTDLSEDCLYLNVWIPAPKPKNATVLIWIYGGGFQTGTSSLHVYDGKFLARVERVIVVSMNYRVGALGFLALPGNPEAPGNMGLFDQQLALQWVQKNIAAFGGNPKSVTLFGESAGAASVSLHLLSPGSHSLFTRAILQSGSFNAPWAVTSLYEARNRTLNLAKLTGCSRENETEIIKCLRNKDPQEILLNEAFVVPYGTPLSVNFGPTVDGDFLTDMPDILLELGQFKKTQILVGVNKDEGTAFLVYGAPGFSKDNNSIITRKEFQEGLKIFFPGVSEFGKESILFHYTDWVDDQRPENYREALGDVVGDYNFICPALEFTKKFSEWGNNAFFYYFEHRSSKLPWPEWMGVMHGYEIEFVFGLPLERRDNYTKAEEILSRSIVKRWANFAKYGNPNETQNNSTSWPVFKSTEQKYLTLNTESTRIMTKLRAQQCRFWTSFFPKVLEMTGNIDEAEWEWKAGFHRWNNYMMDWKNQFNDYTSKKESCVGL", "assay": "Inhibition of human serum BuChE assessed as residual activity at 0.1 times IC50 using acetylcholine iodide as substrate measured after dilution by Ellman's method relative to control"}, "[3]": {"species": "Danio rerio", "assay": "Antialzheimer activity in AlCl3-induced Zebrafish model of Alzheimer's disease assessed as motility distance at 0.33 ug/ml (reference value: 5346 mm)", "assay_type": "functional", "details": "dose 0.33 µg/ml"}, "[4]": {"assay": "Selectivity index, ratio of IC50 for Electrophorus electricus AChE to IC50 for equine serum BuChE"}, "[5]": {"assay": "Toxicity in AlCl3-induced Zebrafish model of Alzheimer's disease assessed as mortality at 25 ug/ml relative to control", "set-up": "species or system Danio rerio", "details": "in vivo, at 25 µg/mL"}, "[6]": {"assay": "Acute toxicity in Kunming mouse assessed as hypokinesia at 250 to 1000 mg/kg", "assay_type": "organism-based", "details": "in vivo, dose 250-1000 mg/kg"}, "[7]": {"assay": "Effect on tau protein level in mouse HT22 cells transfected with pRK5-GFP-Tau P301L plasmid assessed as fluorescence intensity at 2.5 uM by fluorescence microscopy (reference value: 33.6)", "assay_type": "functional, HT-22"}, "[8]": {"assay": "Toxicity in Zebrafish", "set-up": "species or system Danio rerio", "details": "in vivo"}, "[9]": {"assay": "Cytotoxicity against mouse HT22 cells assessed as cell viability at 20 uM by MTT assay relative to control", "assay_type": "cell-based, HT-22", "details": "read-out: Activity"}, "[10]": {"species": "Danio rerio", "assay": "Antialzheimer activity in AlCl3-induced Zebrafish model of Alzheimer's disease assessed as increase in motility distance at 0.33 ug/ml relative to control", "assay_type": "functional", "details": "dose 0.33 µg/ml"}, "[11]": {"system": "HT-22", "assay": "Down regulation of APP protein expression in mouse HT22 cells transfected with pEGFP-N1-APP plasmid at 10 to 20 uM by Western blot analysis", "assay_type": "functional, cell-based", "details": "dose 10-20 µM"}, "[12]": {"assay": "Toxicity in Zebrafish assessed as absence of blood flow at 6.25 ug/ml relative to control", "set-up": "species or system Danio rerio", "details": "at 6.25 µg/mL"}, "[13]": {"system": "Mus musculus", "assay": "Improvement in brain cholinergic activity in scopolamine-induced mouse model of amnesia assessed as change in ChAT vitality at 20 mg/kg (reference value: 28.8 U/g)", "assay_type": "functional"}, "[14]": {"assay": "Toxicity in Zebrafish assessed as induction of yolk sac absorption delay at 6.25 ug/ml relative to control", "set-up": "species or system Danio rerio", "details": "in vivo, at 6.25 µg/mL"}, "[15]": {"assay": "Toxicity in AlCl3-induced Zebrafish model of Alzheimer's disease assessed as mortality at 200 ug/ml relative to control", "set-up": "species or system Danio rerio", "details": "in vivo, at 200 µg/mL"}, "[16]": {"assay": "Toxicity in AlCl3-induced Zebrafish model of Alzheimer's disease", "set-up": "species or system Danio rerio", "details": "in vivo"}, "[17]": {"species": "Danio rerio", "assay": "Antialzheimer activity in AlCl3-induced Zebrafish model of Alzheimer's disease assessed as increase in motility distance at 1 ug/ml relative to control", "assay_type": "functional", "details": "dose 1 µg/ml"}, "[18]": {"species": "Mus musculus", "assay": "Improvement in brain cholinergic activity in scopolamine-induced mouse model of amnesia assessed as increase in ChAT vitality", "assay_type": "functional, organism-based"}, "[19]": {"assay": "Acute toxicity in Kunming mouse assessed as mortality at 50 to 1000 mg/kg", "assay_type": "organism-based", "details": "in vivo, dose 50-1000 mg/kg"}, "[20]": {"assay": "Toxicity in Zebrafish assessed as small or misshapen eyes at 6.25 ug/ml relative to control", "set-up": "species or system Danio rerio", "details": "in vivo, at 6.25 µg/mL"}, "[21]": {"species": "Danio rerio", "assay": "Antialzheimer activity in AlCl3-induced Zebrafish model of Alzheimer's disease assessed as motility distance at […] (reference value: 5346 mm)", "assay_type": "functional", "details": "dose 0.11 µg/ml"}, "[22]": {"assay": "Toxicity in Zebrafish assessed as mortality at 100 ug/ml relative to control", "set-up": "species or system Danio rerio", "details": "in vivo, at 100 µg/mL"}, "[23]": {"molecular_target": "T1, Amine oxidase [flavin-containing] B (Homo sapiens, UniProt P27338)", "T1 sequence (P27338 whole entry)": "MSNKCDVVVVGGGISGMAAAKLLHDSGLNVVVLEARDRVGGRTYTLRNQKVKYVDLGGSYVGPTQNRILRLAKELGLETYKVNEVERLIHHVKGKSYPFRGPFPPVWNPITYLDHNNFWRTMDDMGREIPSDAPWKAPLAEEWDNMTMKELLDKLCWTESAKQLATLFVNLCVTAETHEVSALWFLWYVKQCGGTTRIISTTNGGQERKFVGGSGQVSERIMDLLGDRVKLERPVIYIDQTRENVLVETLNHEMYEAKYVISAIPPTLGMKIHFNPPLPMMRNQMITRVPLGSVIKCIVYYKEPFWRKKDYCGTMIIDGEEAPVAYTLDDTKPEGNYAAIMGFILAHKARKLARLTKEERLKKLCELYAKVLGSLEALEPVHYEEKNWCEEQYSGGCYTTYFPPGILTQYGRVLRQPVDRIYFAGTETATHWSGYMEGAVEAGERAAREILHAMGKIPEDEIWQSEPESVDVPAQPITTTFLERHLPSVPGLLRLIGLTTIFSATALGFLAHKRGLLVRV", "assay": "Inhibition of recombinant human MAO-B"}, "[24]": {"molecular_target": "T2, Amine oxidase [flavin-containing] A (Homo sapiens, UniProt P21397)", "T2 sequence (P21397 whole entry)": "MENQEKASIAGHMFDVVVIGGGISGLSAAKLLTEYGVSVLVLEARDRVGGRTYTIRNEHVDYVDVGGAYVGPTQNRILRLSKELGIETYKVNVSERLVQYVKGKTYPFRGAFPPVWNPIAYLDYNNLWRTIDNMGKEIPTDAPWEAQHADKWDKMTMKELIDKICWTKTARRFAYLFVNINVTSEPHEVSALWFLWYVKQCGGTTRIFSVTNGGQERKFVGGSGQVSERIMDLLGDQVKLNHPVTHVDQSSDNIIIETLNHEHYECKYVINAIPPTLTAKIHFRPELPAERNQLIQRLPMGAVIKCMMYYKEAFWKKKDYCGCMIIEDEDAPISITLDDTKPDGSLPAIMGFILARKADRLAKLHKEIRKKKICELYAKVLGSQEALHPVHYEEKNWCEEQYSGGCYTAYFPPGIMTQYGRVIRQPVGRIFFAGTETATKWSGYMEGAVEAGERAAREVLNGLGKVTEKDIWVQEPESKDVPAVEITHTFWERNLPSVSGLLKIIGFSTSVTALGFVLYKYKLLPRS", "assay": "Inhibition of recombinant human MAO-A"}, "[25]": {"assay": "Toxicity in Zebrafish assessed as induction of kidney edema at 6.25 ug/ml relative to control", "set-up": "species or system Danio rerio", "details": "in vivo, at 6.25 µg/mL"}, "[26]": {"assay": "Toxicity in Zebrafish assessed as small or misshapen brain at 6.25 ug/ml relative to control", "assay_type": "tissue-based, Danio rerio", "details": "in vivo, at 6.25 µg/mL"}, "[27]": {"species": "Danio rerio", "assay": "Protection against amyloid beta (1 to 42)-induced zebrafish model of vascular injury assessed as vascular injury rate at 0.33 ug/ml (reference value: 73.3%)", "assay_type": "functional", "details": "dose 0.33 µg/ml"}, "[28]": {"assay": "Toxicity in Zebrafish assessed as effect on kidney at 6.25 ug/ml relative to control", "set-up": "species or system Danio rerio", "details": "in vivo, at 6.25 µg/mL"}, "[29]": {"assay": "Toxicity in AlCl3-induced Zebrafish model of Alzheimer's disease assessed as mortality at 2.5 ug/ml relative to control", "set-up": "species or system Danio rerio", "details": "in vivo, at 2.5 µg/mL"}, "[30]": {"species": "Homo sapiens", "assay": "Selectivity index, ratio of IC50 for human erythrocytes Ache to IC50 for human serum BuChe"}}, "note": "Active and inactive are the calls of the source. No cut-off for these calls is given here.", "data": [{"smiles": "CCN(C)C(=O)Oc1ccc(/C=C/C(=O)N2CCc3ccccc3C2)cc1OC", "values": [{"measurement": "Activity", "setting": "[1]", "value": "Dose-dependent effect"}, {"measurement": "Activity", "setting": "[2]", "value": 47.1, "unit": "%"}, {"measurement": "Activity", "setting": "[3]", "value": 6763, "unit": "mm"}, {"measurement": "Ratio IC50", "setting": "[4]", "value": 12.3}, {"measurement": "mortality at 25 ug/ml", "setting": "[5]", "value": 100, "unit": "%"}, {"measurement": "Activity", "setting": "[6]", "value": "Toxic"}, {"measurement": "Flu intensity", "setting": "[7]", "value": 30.3}, {"measurement": "LC10", "setting": "[8]", "value": 6.25, "unit": "µg/mL"}, {"measurement": "MNTC", "setting": "[8]; read-out: MNCC", "value": 3.12, "unit": "µg/mL"}, {"measurement": "viability at 20 µM", "setting": "[9]", "value": 79.8, "unit": "%"}, {"measurement": "Efficacy", "setting": "[10]", "value": 72.6, "unit": "%"}, {"measurement": "Activity", "setting": "[11]", "value": "Active"}, {"measurement": "Activity", "setting": "[12]", "value": 16.7, "unit": "%"}, {"measurement": "Activity", "setting": "[13]", "value": 54.1, "unit": "U/g"}, {"measurement": "Activity", "setting": "[14]", "value": 100, "unit": "%"}, {"measurement": "mortality at 200 ug/ml", "setting": "[15]", "value": 100, "unit": "%"}, {"measurement": "MTD", "setting": "[16]", "value": 1, "unit": "µg/mL"}, {"measurement": "Efficacy", "setting": "[17]", "value": 85.9, "unit": "%"}, {"measurement": "Activity", "setting": "[18]", "value": "Dose-dependent effect"}, {"measurement": "Activity", "setting": "[19]", "value": "Non-Toxic"}, {"measurement": "Activity", "setting": "[20]", "value": 26.7, "unit": "%"}, {"measurement": "Activity", "setting": "[21]", "value": "<=6418 mm"}, {"measurement": "mortality at 100 ug/ml", "setting": "[22]", "value": 100, "unit": "%"}, {"measurement": "IC50", "setting": "[23]", "value": 5.3, "unit": "µM"}, {"measurement": "IC50", "setting": "[24]", "value": 15.9, "unit": "µM"}, {"measurement": "Activity", "setting": "[25]", "value": 33.3, "unit": "%"}, {"measurement": "Activity", "setting": "[26]", "value": 26.7, "unit": "%"}, {"measurement": "Activity", "setting": "[27]", "value": 66.7, "unit": "%"}, {"measurement": "Activity", "setting": "[28]", "value": 23.3, "unit": "%"}, {"measurement": "mortality at 2.5 ug/ml", "setting": "[29]", "value": 0, "unit": "%"}, {"measurement": "Ratio IC50", "setting": "[30]", "value": 10.9}]}]}
